{
  "source": "patent US12077503B2",
  "about": "“Substituted cyclic amides and their use as herbicides” (FMC CORPORATION, priority 2015, dated 2024)",
  "type_in_all_cases": "in vivo",
  "key": {"[1]": {"system": "barnyardgrass (Echinochloa crus-galli)", "experiment": "Test B flooded paddy test", "conditions": "Echinochloa crus-galli, 250 g ai/ha, Flood; 0 to 100 scale where 0 is no effect and 100 is complete control; read-out: Barnyardgrass plant response rating", "summary_of_the_method": "(§1)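 Visual ratings (0 none to 100 complete control) are relative to untreated plants, taken 13–15 d after treatment in a greenhouse. Test material went straight into floodwater standing 3 cm above the soil, kept constant, on plants at the 2-leaf stage.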"}, "[2]": {"system": "ducksalad (Heteranthera limosa)", "experiment": "Test B flooded paddy test", "conditions": "Heteranthera limosa, 250 g ai/ha, Flood; 0 to 100 scale where 0 is no effect and 100 is complete control; read-out: Ducksalad plant response rating", "summary_of_the_method": "as §1"}, "[3]": {"system": "sedge, umbrella (small-flower umbrella sedge, Cyperus difformis)", "experiment": "Test B flooded paddy test", "conditions": "Cyperus difformis, 250 g ai/ha, Flood; 0 to 100 scale where 0 is no effect and 100 is complete control; read-out: Sedge, Umbrella plant response rating", "summary_of_the_method": "as §1"}, "[4]": {"system": "rice (Oryra sativa)", "experiment": "Test B flooded paddy test", "conditions": "Oryza sativa, 250 g ai/ha, Flood; 0 to 100 scale where 0 is no effect and 100 is complete control; read-out: Rice plant response rating", "summary_of_the_method": "as §1"}, "[5]": {"system": "Kochia (Kochia scoparia)", "experiment": "Test A preemergence", "conditions": "Bassia scoparia, pre-emergence, 240 h, 0 to 100 scale where 0 is no effect and 100 is complete control, read-out: Kochia plant response rating", "summary_of_the_method": "(§2)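 Each rating is a visual injury score from 0 to 100 given about 10 d after treatment, judged against untreated controls kept alongside in the greenhouse. In loam soil–sand blend, seeds got a preemergence directed soil spray, while postemergence plants were 2 to 10 cm tall at spraying.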"}, "[6]": {"system": "ragweed (common ragweed, Ambrosia elatior)", "experiment": "Test A preemergence", "conditions": "Ambrosia artemisiifolia, pre-emergence, 240 h, 0 to 100 scale where 0 is no effect and 100 is complete control, read-out: Ragweed plant response rating", "summary_of_the_method": "as §2"}, "[7]": {"system": "barnyardgrass (Echinochloa crus-galli)", "experiment": "Test A preemergence", "conditions": "Echinochloa crus-galli, pre-emergence, 240 h, 0 to 100 scale where 0 is no effect and 100 is complete control, read-out: Barnyardgrass plant response rating", "summary_of_the_method": "as §2"}, "[8]": {"system": "pigweed (Amaranthus retroflexus)", "experiment": "Test A preemergence", "conditions": "Amaranthus retroflexus, pre-emergence, 240 h, 0 to 100 scale where 0 is no effect and 100 is complete control, read-out: Pigweed plant response rating"}, "[9]": {"system": "ryegrass, Italian (Italian ryegrass, Lolium multiflorum)", "experiment": "Test A preemergence", "conditions": "Lolium multiflorum, pre-emergence, 240 h, 0 to 100 scale where 0 is no effect and 100 is complete control, read-out: Ryegrass, Italian plant response rating", "summary_of_the_method": "as §2"}, "[10]": {"system": "giant foxtail (Setaria faberii)", "experiment": "Test A preemergence", "conditions": "Setaria faberi, pre-emergence, 240 h, 0 to 100 scale where 0 is no effect and 100 is complete control, read-out: Foxtail, Giant plant response rating", "summary_of_the_method": "as §2"}, "[11]": {"system": "corn (Zea mays)", "experiment": "Test A postemergence", "conditions": "Zea mays, post-emergence, 240 h", "summary_of_the_method": "as §2"}, "[12]": {"system": "Kochia (Kochia scoparia)", "experiment": "Test A postemergence", "conditions": "Bassia scoparia, post-emergence, 240 h", "summary_of_the_method": "as §2"}, "[13]": {"system": "Galium (catchweed bedstraw, Galium aparine)", "experiment": "Test A postemergence", "conditions": "Galium, post-emergence, 240 h", "summary_of_the_method": "as §2"}, "[14]": {"system": "ragweed (common ragweed, Ambrosia elatior)", "experiment": "Test A postemergence", "conditions": "Ambrosia artemisiifolia, post-emergence, 240 h", "summary_of_the_method": "as §2"}, "[15]": {"system": "barnyardgrass (Echinochloa crus-galli)", "experiment": "Test A postemergence", "conditions": "Echinochloa crus-galli, post-emergence, 240 h", "summary_of_the_method": "as §2"}, "[16]": {"system": "blackgrass (Alopecurus myosuroides)", "experiment": "Test A postemergence", "conditions": "Alopecurus myosuroides, post-emergence, 240 h", "summary_of_the_method": "as §2"}, "[17]": {"system": "pigweed (Amaranthus retroflexus)", "experiment": "Test A postemergence", "conditions": "Amaranthus retroflexus, post-emergence, 240 h", "summary_of_the_method": "as §2"}, "[18]": {"system": "ryegrass, Italian (Italian ryegrass, Lolium multiflorum)", "experiment": "Test A postemergence", "conditions": "Lolium multiflorum, post-emergence, 240 h", "summary_of_the_method": "as §2"}, "[19]": {"system": "wheat (Triticum aestivum)", "experiment": "Test A postemergence", "conditions": "Triticum aestivum, post-emergence, 240 h", "summary_of_the_method": "as §2"}, "[20]": {"system": "giant foxtail (Setaria faberii)", "experiment": "Test A postemergence", "conditions": "Setaria faberi, post-emergence, 240 h", "summary_of_the_method": "as §2"}, "[21]": {"conditions": "125 g ai/ha, preemergence, approx. 10 d"}},
  "data": [
    {"smiles": "C=C(C)c1cccc([C@H]2CN(C)C(=O)[C@@H]2C(=O)Nc2ccc(F)c(F)c2F)c1", "note": "[Compound 1087]", "values": [
      {"measurement": "pest or weed control at 250 g/ha", "setting": "[1]", "result": 70, "unit": "%"},
      {"measurement": "pest or weed control at 250 g/ha", "setting": "[2]", "result": 30, "unit": "%"},
      {"measurement": "pest or weed control at 250 g/ha", "setting": "[3]", "result": 0, "unit": "%"},
      {"measurement": "pest or weed control at 250 g/ha", "setting": "[4]", "result": 25, "unit": "%"},
      {"measurement": "pest or weed control at 31 g/ha", "setting": "[5]; 31 g ai/ha, Preemergence", "result": 0, "unit": "%"},
      {"measurement": "pest or weed control at 125 g/ha", "setting": "[5]; [21]", "result": 60, "unit": "%"},
      {"measurement": "pest or weed control at 31 g/ha", "setting": "[6]; 31 g ai/ha, Preemergence", "result": 0, "unit": "%"},
      {"measurement": "pest or weed control at 125 g/ha", "setting": "[6]; [21]", "result": 0, "unit": "%"},
      {"measurement": "pest or weed control at 31 g/ha", "setting": "[7]; 31 g ai/ha, Preemergence", "result": 0, "unit": "%"},
      {"measurement": "pest or weed control at 125 g/ha", "setting": "[7]; [21]", "result": 90, "unit": "%"},
      {"measurement": "pest or weed control at 31 g/ha", "setting": "[8]; 31 g ai/ha, Preemergence", "result": 0, "unit": "%"},
      {"measurement": "pest or weed control at 125 g/ha", "setting": "[8]; [21]", "result": 0, "unit": "%"},
      {"measurement": "pest or weed control at 31 g/ha", "setting": "[9]; 31 g ai/ha, Preemergence", "result": 0, "unit": "%"},
      {"measurement": "pest or weed control at 125 g/ha", "setting": "[9]; [21]", "result": 30, "unit": "%"},
      {"measurement": "pest or weed control at 31 g/ha", "setting": "[10]; 31 g ai/ha, Preemergence", "result": 90, "unit": "%"},
      {"measurement": "pest or weed control at 125 g/ha", "setting": "[10]; [21]", "result": 100, "unit": "%"},
      {"measurement": "plant injury at 125 g/ha", "setting": "[11]; 125 g ai/ha, postemergence, visual injury on 0 to 100 scale (0 no effect, 100 complete control), approx. 10 d, read-out: Corn plant response rating", "result": 0, "unit": "%"},
      {"measurement": "Corn plant response rating (crop injury, 0 = no effect, 100 = complete kill) at 31 g/ha", "setting": "[11]; Postemergence, 31 g ai/ha, visual injury after approx. 10 d, 0 to 100 scale, 0 no effect, 100 complete control", "result": 0, "unit": "%"},
      {"measurement": "pest or weed control at 125 g/ha", "setting": "[12]; 125 g ai/ha, postemergence, visual injury on 0 to 100 scale (0 no effect, 100 complete control), approx. 10 d, read-out: Kochia plant response rating", "result": 20, "unit": "%"},
      {"measurement": "pest or weed control at 31 g/ha", "setting": "[12]; Postemergence, 31 g ai/ha, visual injury after approx. 10 d, 0 to 100 scale, 0 no effect, 100 complete control, read-out: Plant response rating, Kochia", "result": 0, "unit": "%"},
      {"measurement": "pest or weed control at 125 g/ha", "setting": "[13]; 125 g ai/ha, postemergence, visual injury on 0 to 100 scale (0 no effect, 100 complete control), approx. 10 d, read-out: Galium plant response rating", "result": 70, "unit": "%"},
      {"measurement": "pest or weed control at 31 g/ha", "setting": "[13]; Postemergence, 31 g ai/ha, visual injury after approx. 10 d, 0 to 100 scale, 0 no effect, 100 complete control, read-out: Plant response rating, Galium", "result": 30, "unit": "%"},
      {"measurement": "pest or weed control at 125 g/ha", "setting": "[14]; 125 g ai/ha, postemergence, visual injury on 0 to 100 scale (0 no effect, 100 complete control), approx. 10 d, read-out: Ragweed plant response rating", "result": 0, "unit": "%"},
      {"measurement": "pest or weed control at 31 g/ha", "setting": "[14]; Postemergence, 31 g ai/ha, visual injury after approx. 10 d, 0 to 100 scale, 0 no effect, 100 complete control, read-out: Plant response rating, Ragweed", "result": 0, "unit": "%"},
      {"measurement": "pest or weed control at 125 g/ha", "setting": "[15]; 125 g ai/ha, postemergence, visual injury on 0 to 100 scale (0 no effect, 100 complete control), approx. 10 d, read-out: Barnyardgrass plant response rating", "result": 90, "unit": "%"},
      {"measurement": "pest or weed control at 31 g/ha", "setting": "[15]; Postemergence, 31 g ai/ha, visual injury after approx. 10 d, 0 to 100 scale, 0 no effect, 100 complete control, read-out: Plant response rating, Barnyardgrass", "result": 20, "unit": "%"},
      {"measurement": "pest or weed control at 125 g/ha", "setting": "[16]; 125 g ai/ha, postemergence, visual injury on 0 to 100 scale (0 no effect, 100 complete control), approx. 10 d, read-out: Blackgrass plant response rating", "result": 30, "unit": "%"},
      {"measurement": "pest or weed control at 31 g/ha", "setting": "[16]; Postemergence, 31 g ai/ha, visual injury after approx. 10 d, 0 to 100 scale, 0 no effect, 100 complete control, read-out: Plant response rating, Blackgrass", "result": 0, "unit": "%"},
      {"measurement": "pest or weed control at 125 g/ha", "setting": "[17]; 125 g ai/ha, postemergence, visual injury on 0 to 100 scale (0 no effect, 100 complete control), approx. 10 d, read-out: Pigweed plant response rating", "result": 30, "unit": "%"},
      {"measurement": "pest or weed control at 31 g/ha", "setting": "[17]; Postemergence, 31 g ai/ha, visual injury after approx. 10 d, 0 to 100 scale, 0 no effect, 100 complete control, read-out: Plant response rating, Pigweed", "result": 0, "unit": "%"},
      {"measurement": "pest or weed control at 125 g/ha", "setting": "[18]; 125 g ai/ha, postemergence, visual injury on 0 to 100 scale (0 no effect, 100 complete control), approx. 10 d, read-out: Ryegrass, Italian plant response rating", "result": 0, "unit": "%"},
      {"measurement": "pest or weed control at 31 g/ha", "setting": "[18]; Postemergence, 31 g ai/ha, visual injury after approx. 10 d, 0 to 100 scale, 0 no effect, 100 complete control, read-out: Plant response rating, Ryegrass, Italian", "result": 0, "unit": "%"},
      {"measurement": "plant injury at 125 g/ha", "setting": "[19]; 125 g ai/ha, postemergence, visual injury on 0 to 100 scale (0 no effect, 100 complete control), approx. 10 d, read-out: Wheat plant response rating", "result": 0, "unit": "%"},
      {"measurement": "plant injury at 31 g/ha", "setting": "[19]; Postemergence, 31 g ai/ha, visual injury after approx. 10 d, 0 to 100 scale, 0 no effect, 100 complete control, read-out: Plant response rating, Wheat", "result": 0, "unit": "%"},
      {"measurement": "pest or weed control at 125 g/ha", "setting": "[20]; 125 g ai/ha, postemergence, visual injury on 0 to 100 scale (0 no effect, 100 complete control), approx. 10 d, read-out: Foxtail, Giant plant response rating", "result": 60, "unit": "%"},
      {"measurement": "pest or weed control at 31 g/ha", "setting": "[20]; Postemergence, 31 g ai/ha, visual injury after approx. 10 d, 0 to 100 scale, 0 no effect, 100 complete control, read-out: Plant response rating, Foxtail, Giant", "result": 30, "unit": "%"}
    ]}
  ]
}
